Experimental data published in patent publication US10653667B2, “Drug for preventing, treating or preventing metastasis of giant cell tumor that occurs in bone or soft parts, chondrosarcoma, or osteosarcoma, local injection for arterial embolization, and artificial bone” (NIPPON CHEMIPHAR CO., LTD, priority 2013, dated 2020).
“And” between values parts separate entries of the source, which are not always exact repeats. Identical values can stand only once. “Also recorded” adds a separate entry of the source.

How the values were obtained:
[1] = tested on: GCTB cultured cells (case 1, case 2; GCT-1, GCT-2); assay: Suppression of cell proliferation of GCTB cultured cells (Cell Counting Kit-8, WST assay); type: cell-based, human; conditions: drug at various concentrations, CCK-8 24 hours after addition
Experimental: Tissue Int., 75:71-77), repeatedly subcultured until there were only spindle-shaped cells, which state was gradually attained from the state that there were also multinucleated giant cells observed in an early stage, and then used for the following analysis. […] Zaltoprofen was added as a solution in DMSO (dimethyl sulfoxide) prepared at a concentration 1000 times higher than the final concentration, and the solution was added in a volume of 0.1% of the volume of the medium. The same shall apply to the other drugs used in the following examples. […]

[2] = tested on: GCTB cultured cells of the case 1; assay: Fat cell differentiation of GCTB cultured cells (HCS Lipid TOX Green Neutral Lipid Stain); type: cell-based, human; conditions: zaltoprofen 10, 50, 100 μM; fat cell differentiation-inducing medium 7 to 14 days
Experimental: It has been reported that PPARγ is a transcription factor indispensable for fat cell differentiation. Therefore, the GCTB cultured cells of the aforementioned case 1 were cultured on chamber cover slide glass, and when they reached confluent, zaltoprofen was added to the cells at various concentrations (10, 50, and 100 μM). From 24 hours thereafter, the cells were cultured in a fat cell differentiation-inducing medium (STREMPRO Adipogenesis Differentiation Kit, Invitrogen) for 7 to 14 days, and differentiation into fat cells was analyzed with HCS Lipid TOX Green Neutral Lipid Stain (Invitrogen) (FIGS. 8 and 9).

[3] = tested on: cultured cells of human giant cell tumor of tendon sheath (GCTT); assay: Tunel assay and caspase 3 staining of GCTT cultured cells; type: cell-based; conditions: zaltoprofen 400 μM or troglitazone 200 μM, compared with control
Experimental: Further, the aforementioned GCTB cultured cells of the case 1 mentioned above were cultured on chamber cover slide glass, and zaltoprofen was added at different concentrations (100, and 200 μM) 24 hours afterward. Then, 8 hours and 24 hours afterward, the cells were fixed with 4% paraformaldehyde, staining with caspase 3 and Tunel assay were performed, and presence or absence of apoptosis was analyzed. In the Tunel assay, fragmented DNAs produced in the process of apoptosis were detected by the TdT-mediated dUTP nick end labeling method (TUNEL). Observation was performed with a fluorescence microscope (BZ-9000) of Keyence, and positive images for each concentration were quantitatively observed (FIGS. 2 to 5).
Further, in the same manner as that of Example 1, the cultured cells of human giant cell tumor of tendon sheath (GCTT) and the cultured cells of human pigmented villonodular synovitis (PVNS) were subjected to staining with caspase 3 and Tunel assay, and presence or absence of apoptosis was analyzed (FIGS. 18 to 25).

[4] = tested on: PPARγ expression in cells of giant cell tumor of tendon sheath (GCTT); assay: PPARγ immunostaining of GCTT cells; type: cell-based, human; conditions: zaltoprofen 400 μM or troglitazone 200 μM
[5] = tested on: PPARγ expression in cells of pigmented villonodular synovitis (PVNS); assay: PPARγ immunostaining of PVNS cells; type: cell-based, human; conditions: zaltoprofen 400 μM or troglitazone 200 μM
[6] = tested on: PPARγ expression in H-EMC-SS cells; assay: PPARγ immunostaining of chondrosarcoma cell line H-EMC-SS; type: cell-based, human; conditions: zaltoprofen 200 μM, troglitazone 100 μM or pioglitazone 200 μM
SW1353 cells [7] = assay: Suppression of cell proliferation of chondrosarcoma cell line SW1353 (CCK-8); type: cell-based, human; conditions: drug at various concentrations
Text: The H-EMC-SS cells were obtained from the Riken BioResource Center. As the SW1353 cells, those obtained from ATCC were used.

human PVNS cells = assay: Proliferation of human PVNS cells cultured beforehand with PPARγ siRNA or control siRNA; type: cell-based; conditions: PPARγ siRNA 100 nM 48 hours, 100 μM rosiglitazone or 400 μM zaltoprofen
SW1353 cells [8] = assay: Cell migration of human chondrosarcoma cell line SW1353; type: cell-based; conditions: 72 hours
Experimental: The analysis of cell migration was performed by using a 6-well plate of TPP according to the method described in Takeuchi A, et al., Cancer Science, 104:740-749, 2013 (Low molecular weight heparin suppresses receptor for advanced glycation end products-mediated expression of malignant phenotype in human fibrosarcoma cells). Cells of the human chondrosarcoma cell line, SW1353, were cultured in the same manner as that of Example 1 until they became sub-confluent, and the cells were delaminated in a width of 1 mm using a micropipette tip (200 μl). […] Then, area of the cells migrated to the region where the cells were delaminated was measured by using Image J software (http://rsb.info.nih.gov/ij/index.html) (FIGS. 73 and 74).

[9] = tested on: pigmented villonodular synovitis (PVNS); assay: Curative effect of zaltoprofen (Soleton Tablet) on PVNS patients; type: in vivo, human
Experimental: Soleton Tablet 80 (generic name: zaltoprofen, 80 mg, Nippon Chemiphar) was administered to a patient with giant cell tumor of bone (GCTB), patient with giant cell tumor of tendon sheath (GCTT), or patient with pigmented villonodular synovitis (PVNS) at a dose of 3 tablets per day (one tablet was administered in the morning, at noon, and in the evening), and the tumor size was evaluated by MRI every several months.
PVNS patients were administered with 3 tablets per day (one tablet was administered in the morning, at noon, and in the evening) of Soleton Tablet 80 (generic name; zaltoprofen, 80 mg, Nippon Chemiphar). Four weeks after the start of the administration, the tumor size was evaluated by imaging based on simple Roentgen contrast method, X-ray CT, and MRI (nuclear magnetic resonance imaging). Then, the tumors were excised from patients for whom surgical operation was possible, administration of zaltoprofen was continued at a dose of 240 mg per day (one 80 mg tablet was administered at the time of breakfast, lunch, and supper), and the tumor size was evaluated by imaging based on simple Roentgen contrast method, X-ray CT, and MRI (nuclear magnetic resonance imaging) every 16 weeks. Also for patients for whom surgical operation was difficult, administration of 240 mg zaltoprofen per day (one 80 mg tablet was administered at the time of breakfast, lunch, and supper) was continued, and the tumor size was evaluated by imaging based on simple Roentgen contrast method, X-ray CT, and MRI (nuclear magnetic resonance imaging) every 8 weeks.

[10] = tested on: GCTB cultured cells (case 1, case 2; GCT-1, GCT-2); conditions: GCTB derived from a patient; inventors' earlier reports; cited from earlier work
H-EMC-SS cells = conditions: inventors' earlier reports; cited from earlier work
[11] = recurrence of PVNS in the right knee (person; case b), after two months

CC(C(=O)O)c1ccc2c(c1)CC(=O)c1ccccc1S2 (stereo not shown) [zaltoprofen]
suppression of cell proliferation (live cell count, absorbance at 450 nm) [1]: concentration-dependent suppression of the cell proliferation; also recorded: suppressed proliferation
positive images obtained with HCS Lipid TOX Green Neutral Lipid Stain (differentiation into fat cells) [2]: increased in a zaltoprofen concentration-dependent manner
Tunel-positive ratio [3]: increased
caspase 3-positive ratio [3]: increased
expression of PPARγ (PPARγ-positive images) [4]: expression of PPARγ was successfully observed
expression of PPARγ (PPARγ-positive images) [5]: expression of PPARγ was successfully observed
expression of PPARγ (PPARγ-positive images) [6]: expression of PPARγ could be confirmed
suppression of cell proliferation (absorbance at 450 nm) (SW1353 cells [7]): suppressed proliferation
cell proliferation-suppressing action with PPARγ siRNA (human PVNS cells): substantially completely eliminated
suppression of cell migration of SW1353 cells (SW1353 cells [8]; 400 μM zaltoprofen): about 40%
suppression of cell migration of SW1353 cells (SW1353 cells [8]; all set concentrations, concentration-dependent): suppressed the cell migration
diameter of PVNS after taking zaltoprofen ([9]; PVNS case a, shoulder joint, about 50 weeks, 27.7 mm before): 7.9 mm
diameter (major axis) of PVNS after taking zaltoprofen ([9]; PVNS case c, right knee joint, about 35 weeks, 59.5 mm before): 47.2 mm and 48.0 mm
KPS score after taking zaltoprofen ([9]; PVNS cases a and b, score 70 before): 100
change of PVNS ([9]; PVNS cases a, b, c, d, e, and f, no treatment except zaltoprofen): shrank
KPS score after taking zaltoprofen ([9]; PVNS cases c and d, score 80 before): 90
new metastasis during the taking of zaltoprofen ([9]; PVNS patients): any new metastasis of PVNS was not observed
recurrence during the taking of zaltoprofen after ablative operation ([9]; PVNS patients subjected to ablative operation): no recurrence of PVNS could be confirmed
shrinkage of PVNS in patients who took zaltoprofen ([9]; all the patients): shrinkage of PVNS could be confirmed in all the patients
number of cases judged to be partial response (PR) ([9]; among 11 PVNS cases for which the response rate was determined, 240 mg per day): one
cases in which the KPS score worsened ([9]; cases of PVNS who took zaltoprofen): no case in which the KPS score worsened
response judgement of all the PVNS patients who took zaltoprofen ([9]; human, in vivo): partial response (PR) or stable disease (SD)
MRI imaging effect ([9]; recurrence of PVNS in the right knee (case i), 3 tablets per day, after three months): attenuation of the MRI imaging effect
pain and knee-joint excursion ([9]; recurrence of PVNS in the right knee (case i), after three months): improvement was observed
pain [9, 11]: improvement of pain
tumor size by MRI [9, 11]: shrinkage of tumor
suppression of proliferation of cells of giant cell tumor of bone [10]: suppressed proliferation
suppression of proliferation of H-EMC-SS cells (H-EMC-SS cells): suppress proliferation
